Measurements as given in US9556179B2 (BRISTOL-MYERS SQUIBB COMPANY, priority 2012, dated 2017).

The compounds below were run against CK1ε (Homo sapiens (Human), UniProt P49674) (assay: CK1ε kinase assay (Caliper LABCHIP electrophoretic separation of fluoresceinated peptide substrate and product)). Settings: 200 pM enzyme, 50 μM ATP, 22 hours at room temperature.
Format: biochemical
Experimental: (§1) CK1ε and CK1δ Kinase Assays
(§2) The kinase assay was performed in V-bottom 384-well plates. […] The reaction was incubated at room temperature for 22 hours and terminated by adding 45 μl of 35 mM EDTA to each sample. The reaction mixture was analyzed on the Caliper LABCHIP®3000 (Caliper, Hopkinton, Mass.) by electrophoretic separation of the unphosphorylated substrate and phosphorylated product. […] Compounds were dissolved at 10 mM in dimethylsulfoxide (DMSO) and evaluated at eleven concentrations. IC50 values were derived by non-linear regression analysis.

Sequence of CK1ε (P49674 whole entry): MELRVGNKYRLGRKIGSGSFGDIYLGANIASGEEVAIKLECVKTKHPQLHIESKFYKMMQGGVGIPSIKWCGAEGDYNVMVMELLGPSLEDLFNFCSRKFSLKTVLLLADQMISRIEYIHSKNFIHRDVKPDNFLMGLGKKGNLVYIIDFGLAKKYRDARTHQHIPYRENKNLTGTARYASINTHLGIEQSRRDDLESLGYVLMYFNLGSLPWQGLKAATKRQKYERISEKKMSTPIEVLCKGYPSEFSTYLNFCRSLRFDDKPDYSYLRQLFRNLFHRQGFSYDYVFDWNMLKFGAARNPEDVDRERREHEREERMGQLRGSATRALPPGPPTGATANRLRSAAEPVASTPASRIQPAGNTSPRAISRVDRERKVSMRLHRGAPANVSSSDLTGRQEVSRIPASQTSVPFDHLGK

Row | SMILES | IC50
1 | O=C(Nc1cn2nc(-c3c(-c4ccc(F)cc4)ncn3C3CCN(C[C@@H](O)C(F)(F)F)CC3)ccc2n1)c1ccncc1 [Compound 7, (R)—N-(6-(4-(4-fluorophenyl)-1-(1-(3,3,3-trifluoro-2-hydroxypropyl)piperidin-4-yl)-1H-imidazol-5-yl)imidazo[1,2-b]pyridazin-2-yl)isonicotinamide] | 1.77 nM
2 | O=C(Nc1cn2nc(-c3c(-c4ccc(F)cc4)ncn3C3CCN(Cc4ccc(O)nc4)CC3)ccc2n1)c1ccnc(F)c1 [Compound 30, 2-fluoro-N-(6-(4-(4-fluorophenyl)-1-(1-((6-hydroxypyridin-3-yl)methyl)piperidin-4-yl)-1H-imidazol-5-yl)imidazo[1,2-b]pyridazin-2-yl)isonicotinamide] | 2 nM
3 | O=C(Nc1cn2nc(-c3c(-c4ccc(F)cc4)ncn3C3CCN(C(=O)c4cocn4)CC3)ccc2n1)c1ccnc(F)c1 [Compound 43, 2-fluoro-N-(6-(4-(4-fluorophenyl)-1-(1-(oxazole-4-carbonyl)piperidin-4-yl)-1H-imidazol-5-yl)imidazo[1,2-6]pyridazin-2-yl)isonicotinamide] | 0.952 nM
4 | Cc1nocc1C(=O)N1CCC(n2cnc(-c3ccc(F)cc3)c2-c2ccc3nc(NC(=O)c4ccnc(F)c4)cn3n2)CC1 [Compound 63, 2-fluoro-N-(6-(4-(4-fluorophenyl)-1-(1-(3-methylisoxazole-4-carbonyl)piperidm-4-yl)-1H-imidazol-5-yl)imidazo[1,2-6]pyridazin-2-yl)isonicotinamide] | 0.391 nM
5 | O=C(Nc1cn2nc(-c3c(-c4ccc(F)cc4)ncn3C3CCN(C(=O)OCCC(F)(F)F)CC3)ccc2n1)c1ccnc(F)c1 [Compound 83, 3,3,3-trifluoropropyl 4-(5-(2-(2-fluoroisonicotinamido)imidazo[1,2-b]pyridazin-6-yl)-4-(4-fluorophenyl)-1H-imidazol-1-yl)piperidine-1-carboxylate] | 0.461 nM
6 | O=C(Nc1cn2nc(-c3c(-c4ccc(F)cc4)ncn3C3CCN(C(=O)CC(F)(F)F)CC3)ccc2n1)c1cc(F)nc(F)c1 [Compound 94, 2,6-difluoro-N-(6-(4-(4-fluorophenyl)-1-(1-(3,3,3-trifluoropropanoyl)piperidin-4-yl)-1H-imidazol-5-yl)imidazo[1,2-b]pyridazin-2-yl)isonicotinamide] | 1.27 nM
7 | Cc1nc(-c2cccnc2)sc1C(=O)Nc1cn2nc(-c3c(-c4ccc(F)cc4)ncn3C3CCNCC3)ccc2n1 [Compound 95, N-(6-(4-(4-fluorophenyl)-1-(piperidin-4-yl)-1H-imidazol-5-yl)imidazo[1,2-b]pyridazin-2-yl)-4-methyl-2-(pyridin-3-yl)thiazole-5-carboxamide] | 0.17 nM
8 | Cc1nc(-c2cccnc2)sc1C(=O)Nc1cn2nc(-c3c(-c4ccc(F)cc4)ncn3C3CCN(C)CC3)ccc2n1 [Compound 96] | 0.966 nM
9 | Cc1nc(-c2ccncc2)sc1C(=O)Nc1cn2nc(-c3c(-c4ccc(F)cc4)ncn3C3CCN(CCO)CC3)ccc2n1 [Compound 105, N-(6-(4-(4-fluorophenyl)-1-(1-(2-hydroxyethyl)piperidin-4-yl)-1H-imidazol-5-yl)imidazo[1,2-b]pyridazin-2-yl)-4-methyl-2-(pyridin-4-yl) thiazole-5-carboxamide] | 0.096 nM
10 | O=C(Nc1cn2nc(-c3c(-c4ccc(F)cc4)ncn3C3CCNCC3)ccc2n1)c1ccnc2ccccc12 [Compound 109, N-(6-(4-(4-fluorophenyl)-1-(piperidin-4-yl)-1H-imidazol-5-yl)imidazo[1,2-b]pyridazin-2-yl)quinoline-4-carboxamide] | 1.03 nM
11 | O=C(Nc1cn2nc(-c3c(-c4ccc(F)cc4)ncn3C3CCN(CCO)CC3)ccc2n1)c1ccnc2ccccc12 [Compound 111, N-(6-(4-(4-fluorophenyl)-1-(1-(2-hydroxyethyl)piperidin-4-yl)-1H-imidazol-5-yl)imidazo[1,2-b]pyridazin-2-yl)quinoline-4-carboxamide] | 0.564 nM
12 | Cc1nc(-c2ccncc2)sc1C(=O)Nc1cn2nc(-c3c(-c4ccc(F)cc4)ncn3C3CN(CCO)C3)ccc2n1 [Compound 152, N-(6-(4-(4-fluorophenyl)-1-(1-(2-hydroxyethyl)azetidin-3-yl)-1H-imidazol-5-yl)imidazo[1,2-b]pyridazin-2-yl)-4-methyl-2-(pyridin-4-yl)thiazole-5-carboxamide] | 3.07 nM
13 | O=C(Nc1cn2nc(-c3c(-c4ccc(F)cc4)ncn3CC(O)CO)ccc2n1)c1ccnc(F)c1 (centres unmarked) [Compound 235, N-(6-(1-(2,3-dihydroxypropyl)-4-(4-fluorophenyl)-1H-imidazol-5-yl)imidazo[1,2-b]pyridazin-2-yl)-2-fluoroisonicotinamide, dimethyl-formamide] | 2.82 nM
14 | CC(C)(C)OCCn1cnc(-c2ccc(F)cc2)c1-c1ccc2nc(NC(=O)c3ccnc(F)c3)cn2n1 [Compound 260, N-(6-(1-(2-tert-butoxyethyl)-4-(4-fluorophenyl)-1H-imidazol-5-yl)imidazo[1,2-b]pyridazin-2-yl)-2-fluoroisonicotinamide] | 5.53 nM

The next lines start with the values.

Row | IC50 | SMILES
15 | 5.18 nM | O=C(Nc1cn2nc(-c3c(-c4ccc(F)cc4)ncn3C3COC3)ccc2n1)c1ccnc(F)c1 [Compound 239, 2-fluoro-N-(6-(4-(4-fluorophenyl)-1-(oxetan-3-yl)-1H-imidazol-5-yl)imidazo[1,2-b]pyridazin-2-yl)iso-nicotinamide]
16 | 5.29 nM | Cc1nc(-c2ccc(F)cc2)c(-c2ccc3nc(NC(=O)c4ccncc4)cn3n2)n1C [Compound 301, N-(6-(4-(4-Fluorophenyl)-1,2-dimethyl-1H-imidazol-5-yl)imidazo[1,2-b]pyridazin-2-yl)isonicotinamide]
17 | 2.68 nM | Cc1nc(-c2ccc(F)cc2)c(-c2ccc3nc(NC(=O)c4ccnc(N)c4)cn3n2)n1C [Compound 323, 2-amino-N-(6-(4-(4-fluoro-phenyl)-1,2-dimethyl-1H-imidazol-5-yl)imidazo[1,2-b]pyridazin-2-yl)isonicotin-amide]
18 | 6.89 nM | Cc1cc(C(=O)Nc2cn3nc(-c4c(-c5ccc(F)cc5)nc(C)n4C)ccc3n2)[nH]n1 [Compound 349, N-(6-(4-(4-fluorophenyl)-1,2-dimethyl-1H-imidazol-5-yl)imidazo[1,2-b]pyridazin-2-yl)-5-methyl-1H-pyrazole-3-carboxamide]
19 | 2.32 nM | Cc1nc(-c2ccc(F)cc2)c(-c2ccc3nc(NC(=O)c4cncnc4)cn3n2)n1C [Compound 350, N-(6-(4-(4-fluorophenyl)-1,2-dimethyl-1H-imidazol-5-yl)imidazo[1,2-b]pyridazin-2-yl)-5-pyrimidinecarboxamide]
20 | 2.01 nM | Cc1nnsc1C(=O)Nc1cn2nc(-c3c(-c4ccc(F)cc4)nc(C)n3C)ccc2n1 [Compound 351, N-(6-(4-(4-fluorophenyl)-1,2-dimethyl-1H-imidazol-5-yl)imidazo[1,2-b]pyridazin-2-yl)-4-methyl-1,2,3-thiadiazole-5-carboxamide]
21 | 5.38 nM | Cc1nc(-c2ccc(F)cc2)c(-c2ccc3nc(NC(=O)c4cncn4C)cn3n2)n1C [Compound 360, N-(6-(4-(4-fluorophenyl)-1,2-dimethyl-1H-imidazol-5-yl)imidazo[1,2-b]pyridazin-2-yl)-1-methyl-1H-imidazole-5-carboxamide]
22 | 48.4 nM | Cc1nc(-c2ccc(F)cc2)c(-c2ccc3nc(NC(=O)c4nc[nH]n4)cn3n2)n1C [Compound 368, N-(6-(4-(4-fluorophenyl)-1,2-dimethyl-1H-imidazol-5-yl)imidazo[1,2-b]pyridazin-2-yl)-1H-1,2,4-triazole-3-carboxamide]
23 | 11.9 nM | Cc1nc(-c2ccc(F)cc2)c(-c2ccc3nc(NC(=O)c4ccno4)cn3n2)n1C [Compound 387, N-(6-(4-(4-fluorophenyl)-1,2-dimethyl-1H-imidazol-5-yl)imidazo[1,2-b]pyridazin-2-yl)isoxazole-5-carboxamide]
24 | 34.2 nM | Cc1cc(C(=O)Nc2cn3nc(-c4c(-c5ccc(F)cc5)nc(C)n4C)ccc3n2)n[nH]1 [Compound 401, N-(6-(4-(4-fluorophenyl)-1,2-dimethyl-1H-imidazol-5-yl)imidazo[1,2-b]pyridazin-2-yl)-5-methyl-1H-pyrazole-3-carboxamide]

These compounds were tested against CK1δ (Homo sapiens (Human), UniProt P48730) (assay: CK1δ kinase assay (Caliper LABCHIP electrophoretic separation of fluoresceinated peptide substrate and product)). Settings: 200 pM enzyme, 50 μM ATP, 22 hours at room temperature.
Sequence of CK1δ (P48730 whole entry): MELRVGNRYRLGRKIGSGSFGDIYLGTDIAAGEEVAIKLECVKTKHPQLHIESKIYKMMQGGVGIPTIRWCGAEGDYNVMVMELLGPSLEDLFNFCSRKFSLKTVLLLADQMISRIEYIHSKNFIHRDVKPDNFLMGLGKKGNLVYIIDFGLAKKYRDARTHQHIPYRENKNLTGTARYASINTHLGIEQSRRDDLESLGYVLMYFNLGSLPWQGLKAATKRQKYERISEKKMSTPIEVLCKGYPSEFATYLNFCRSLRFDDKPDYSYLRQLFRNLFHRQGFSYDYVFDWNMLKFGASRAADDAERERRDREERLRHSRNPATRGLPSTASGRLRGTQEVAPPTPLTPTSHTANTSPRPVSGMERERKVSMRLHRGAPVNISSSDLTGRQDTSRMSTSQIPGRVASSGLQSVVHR
Format: biochemical
Experimental: as §1, §2

Row | IC50 | SMILES
25 | 0.064 nM | O=C(Nc1cn2nc(-c3c(-c4ccc(F)cc4)ncn3C3CCNCC3)ccc2n1)c1ccncc1 [Compound 1, N-(6-(4-(4-fluorophenyl)-1-(piperidin-4-yl)-1H-imidazol-5-yl)imidazo[1,2-b]pyridazin-2-yl)isonicotinamide]
26 | 0.611 nM | O=C(Nc1cn2nc(-c3c(-c4ccc(F)cc4)ncn3C3CCN(CC4CCOCC4)CC3)ccc2n1)c1ccnc(F)c1 [Compound 19]
27 | 0.532 nM | CN1CCC(CN2CCC(n3cnc(-c4ccc(F)cc4)c3-c3ccc4nc(NC(=O)c5ccnc(F)c5)cn4n3)CC2)CC1 [Compound 25, 2-fluoro-N-(6-(4-(4-fluorophenyl)-1-(1-((1-methylpiperidin-4-yl)methyl)piperidin-4-yl)-1H-imidazol-5-yl)imidazo[1,2-6]pyridazin-2-yl)isonicotinamide]
28 | 0.226 nM | O=C(Nc1cn2nc(-c3c(-c4ccc(F)cc4)ncn3C3CCN(Cc4ncco4)CC3)ccc2n1)c1ccnc(F)c1 [Compound 29, 2-fluoro-N-(6-(4-(4-fluorophenyl)-1-(1-(oxazol-2-ylmethyl)piperidin-4-yl)-1H-imidazol-5-yl)imidazo[1,2-6]pyridazin-2-yl)isonicotinamide]
29 | 0.116 nM | O=C(Nc1cn2nc(-c3c(-c4ccc(F)cc4)ncn3C3CCN(C(=O)C4CC(F)(F)C4)CC3)ccc2n1)c1ccnc(F)c1 [Compound 67, N-(6-(1-(1-(3,3-difluorocyclobutanecarbonyl)piperidin-4-yl)-4-(4-fluorophenyl)-1H-imidazol-5-yl)imidazo[1,2-b]pyridazin-2-yl)-2-fluoroisonicotinamide]
